Experimental data from US20240166627A1, “Terpyridinedione compound or salt thereof, and preparation method and application thereof” (SHENZHEN SALUBRIS PHARMACEUTICALS CO., LTD., priority 2021, published 2024).
Values after ≈ are worked out from the molar mass of the structure shown.

How the values were obtained:
p38β = p38β (Homo sapiens, UniProt Q15759); experiment: p38β kinase screening experiment (ADP-Glo); type: biochemical
Experimental: A certain amount of the compound is weighed, prepared into a 10/50 mM mother solution with DMSO, diluted 3 folds with DMSO, and diluted to 10 concentration points as a compound working solution.
50 nL of the diluted compound working solution is transferred to each well of a reaction plate (784075, Greiner) with Echo 655, then 2.5 μL (2 ng/μL) of a p38β kinase solution is added; after 10 minutes at room temperature, 2.5 μL of a mixed solution of a kinase substrate (0.4 mg/mL) and ATP (100 μM) is added, for reaction for 60 min at room temperature; and 4 μL of an ADP Glo reagent is added, for incubation for 40 min at room temperature. 8 μL of a kinase detection reagent is added, for incubation for 40 min at room temperature; and finally a light-emitting signal is read on Envision 2104.

p38α/MK2 complex = p38α/MK2 complex (Homo sapiens, UniProt P49137+Q16539); experiment: p38α/MK2 complex kinase screening experiment (IMAP FP); type: biochemical; details: p38α 0.2 nM, MK2 unactive 1 nM, HSP27 substrate 1 μM, ATP 10 μM; read-out: IC50 value that the compound inhibits p38α/MK2 complex
Experimental: A certain amount of a drug is weighted and prepared into a 10 mM of mother solution by using DMSO; the mother solution is diluted to 100 μM (100× working solution) in two steps; and then, the solution is diluted 3-fold to 33.33 μM, 11.11 μM, 3.70 μM, 1.23 μM, 0.41 μM, 0.14 μM, 0.046 μM, 0.015 μM, and 0.005 μM, successively. DMSO control is also arranged.
Then, a series of diluted DMSO drugs are diluted 25 folds with 1×IMAP Reaction Buffer as a 4× drug working solution.
10 gradient concentrations and 2 duplicated wells are set to each group of compounds; and a DMSO control group and a negative control group (DMSO, no ATP) are additionally set.
• c), after 1 h of incubation at room temperature, 1× Progressive Binding Solution is added to end the enzymatic reaction; after 30 min of incubation, a BMGPHERASTER FSX multifunctional microplate reader is used to detect a Fluorescence Polarization (FP) signal [FP(Ex485/Em520/Em520 nm)].

[1] = Determination of solubility; type: physicochemical; details: aqueous buffer, thermodynamic from solid, 37° C. 1 h
Experimental: About 0.5 mg of a to-be-tested sample in a centrifuge tube is weighted, an appropriate amount of DMSO is added to completely dissolve the sample, and then methanol is added to make up to 1 ml.
(If there are more pH values to be investigated, the preparation method may be deduced by analogy).
3. The prepared control solution and test solution are simultaneously put into a 37° C. water bath and heated for 1 h, after 1 h, the solutions are taken out and cooled to room temperature, and then the solutions are filtered with a 0.22 μm filter membrane for sample injection.
4. The concentration of the sample in the test solution is calculated according to C=(A*(ms/vs))/AS, and experiment results are shown in Table 2.
Note: ms, vs and AS are the weight, volume and peak area of the sample in the control solution, respectively.
A is the peak area of the test solution.

Sequence of p38β (Q15759 whole entry): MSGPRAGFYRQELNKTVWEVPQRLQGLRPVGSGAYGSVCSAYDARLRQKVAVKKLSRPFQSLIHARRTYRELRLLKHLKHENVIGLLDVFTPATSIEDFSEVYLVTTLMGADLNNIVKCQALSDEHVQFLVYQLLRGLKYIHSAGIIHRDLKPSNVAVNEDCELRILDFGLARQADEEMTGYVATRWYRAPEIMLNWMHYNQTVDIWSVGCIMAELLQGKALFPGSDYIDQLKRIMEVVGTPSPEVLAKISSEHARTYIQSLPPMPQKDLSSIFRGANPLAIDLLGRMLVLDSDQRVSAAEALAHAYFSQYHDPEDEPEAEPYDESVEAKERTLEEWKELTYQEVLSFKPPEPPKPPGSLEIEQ
Sequence of p38α/MK2 complex (Q16539 whole entry): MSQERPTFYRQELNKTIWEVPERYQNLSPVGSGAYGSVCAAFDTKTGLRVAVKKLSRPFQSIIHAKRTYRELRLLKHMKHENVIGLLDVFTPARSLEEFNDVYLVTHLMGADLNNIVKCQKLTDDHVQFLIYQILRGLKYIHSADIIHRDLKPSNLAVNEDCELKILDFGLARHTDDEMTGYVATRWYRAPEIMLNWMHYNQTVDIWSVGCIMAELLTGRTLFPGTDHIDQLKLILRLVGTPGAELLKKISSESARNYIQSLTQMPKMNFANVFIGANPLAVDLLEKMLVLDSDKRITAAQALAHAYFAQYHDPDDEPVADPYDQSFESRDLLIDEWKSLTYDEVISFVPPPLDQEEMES
Sequence of p38α/MK2 complex (P49137 whole entry): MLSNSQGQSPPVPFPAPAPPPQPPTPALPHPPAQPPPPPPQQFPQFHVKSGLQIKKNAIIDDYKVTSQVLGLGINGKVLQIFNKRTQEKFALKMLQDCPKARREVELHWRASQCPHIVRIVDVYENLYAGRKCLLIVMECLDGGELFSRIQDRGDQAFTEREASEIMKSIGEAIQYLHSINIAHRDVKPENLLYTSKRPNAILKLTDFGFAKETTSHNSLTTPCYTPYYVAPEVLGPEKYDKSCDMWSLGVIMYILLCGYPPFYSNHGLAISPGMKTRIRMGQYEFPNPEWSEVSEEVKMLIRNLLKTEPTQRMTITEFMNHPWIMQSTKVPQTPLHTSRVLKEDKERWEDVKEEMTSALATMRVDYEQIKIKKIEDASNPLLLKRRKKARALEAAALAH

In the case of `Cc1cnc(-n2cccc(C(C)(C)O)c2=O)cc1-n1c(C)cc(OCc2ncc(F)cc2F)c(Cl)c1=O` [Comparative example 1], the IC50 (p38β; ATP 100 μM in the substrate/ATP mix, 60 min, read-out: IC50 value that the compound inhibits p38β) is reported as 4100 nM, the “Activity multiple relative to p38β/(p38α/MK2 complex)” value (p38β; ratio of p38β IC50 to p38α/MK2 complex IC50 of Embodiment 50) is reported as 1575 and the IC50 (p38α/MK2 complex) is reported as 2.6 nM. It also gave a solubility at 1 h ([1]; pH = 2.0, PBS buffer) of 427 µg/mL (≈ 807 µM) and a solubility at 1 h ([1]; pH = 7.4, PBS buffer) of 595 µg/mL (≈ 1130 µM).
